Read-outs that look alike come from different tables or passages of the source. Each block holds one molecule with its values, some of them ahead of it.
Molecular target: Human Factor D (Homo sapiens (Human), UniProt P00746)
Experiment: Human Factor D Assay
Format: biochemical
Summary of the method: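 Serum-purified human factor D (80 nM final) preincubated with compound 5 min at room temperature in 50 mM Tris, 1 M NaCl, pH 7.5. Z-L-Lys-SBzl and DTNB added at 100 μM each; A405 followed every 30 s for 30 min. IC50 by nonlinear regression of rates.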

[1] = Table 5, Human Factor D 80 nM, substrate Z-L-Lys-SBzl, read-out: IC50 (Stars)
[2] = Table 6, Human Factor D 80 nM, substrate Z-L-Lys-SBzl, read-out: IC5 (Stars)

Chain of Human Factor D (P00746 26-253): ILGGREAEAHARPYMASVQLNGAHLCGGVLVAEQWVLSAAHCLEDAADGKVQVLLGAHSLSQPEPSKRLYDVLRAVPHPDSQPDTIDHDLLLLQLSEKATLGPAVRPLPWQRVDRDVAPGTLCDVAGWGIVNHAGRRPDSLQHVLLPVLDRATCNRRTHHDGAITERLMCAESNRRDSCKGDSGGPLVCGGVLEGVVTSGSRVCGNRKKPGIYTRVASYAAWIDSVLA

- IC50 (Table 7, read-out: IC5 (Stars)): > 10000 nM
SMILES: Cc1ccc(Br)nc1NC(=O)[C@@H]1C[C@@]2(C)C[C@H]2N1C(=O)Cn1nc(N2CCCC2=O)c2ccncc21 [Compound T-86, (1R,3S,5R)-N-(6-bromo-3-methylpyridin-2-yl)-5-methyl-2-(2-(3-(2-oxopyrrolidin-1-yl)-1H-pyrazolo[3,4-c]pyridin-1-yl)acetyl)-2-azabicyclo[3.1.0]hexane-3-carboxamide]

- IC50 (Table 7, read-out: IC5 (Stars)): 1000 to 10000 nM
SMILES: Cc1ccc(Br)nc1NC(=O)[C@@H]1C[C@@]2(C)C[C@H]2N1C(=O)Cc1ccc2[nH]nc(Cl)c2c1 [Compound T-155, (1R,3S,5R)-N-(6-bromo-3-methylpyridin-2-yl)-2-(2-(3-chloro-1H-indazol-5-yl)acetyl)-5-methyl-2-azabicyclo[3.1.0]hexane-3-carboxamide]

SMILES: CC(=O)c1nn(CC(=O)N2[C@H](C(=O)Nc3nc(Br)ccc3C)C[C@@]3(C)C[C@@H]23)c2c(S(C)(=N)=O)cccc12 (stereo partly drawn) [Compound T-41, (1R,3S,5R)-2-(2-(3-acetyl-7-(S-methylsulfonimidoyl)-1H-indazol-1-yl)acetyl)-N-(6-bromo-3-methylpyridin-2-yl)-5-methyl-2-azabicyclo[3.1.0]hexane-3-carboxamide]
- IC50 [1]: < 1000 nM

SMILES: CC(=O)c1nn(CC(=O)N2C[C@H](F)C[C@H]2C(=O)Nc2cccc(Br)n2)c2ccc(OCCS(=O)(=O)CC3(C)COC3)cc12 [Compound T-54, (2S,4R)-1-(2-(3-acetyl-5-(2-(((3-methyloxetan-3-yl)methyl)sulfonyl)ethoxy)-1H-indazol-1-yl)acetyl)-N-(6-bromopyridin-2-yl)-4-fluoro-pyrrolidine-2-carboxamide]
- IC50 [2]: < 1000 nM

SMILES: CC(=O)c1nn(CC(=O)N2[C@H](C(=O)Nc3nc(Br)ccc3C3CC3)C[C@@]3(C)C[C@@H]23)c2ccc(O[C@@H]3CO[C@H]4[C@@H]3OC[C@H]4O)cc12 [Compound T-51, (1R,3S,5R)-2-(2-(3-acetyl-5-(((3R,3aR,6R,6aR)-6-hydroxy-hexahydrofuro[3,2-b]furan-3-yl)oxy)-1H-indazol-1-yl)acetyl)-N-(6-bromo-3-cyclopropyl-pyridin-2-yl)-5-methyl-2-azabicyclo[3.1.0]hexane-3-carboxamide]
- IC50 [2]: < 1000 nM

SMILES: CC(=O)c1nn(CC(=O)N2C[C@H](F)C[C@H]2C(=O)Nc2nc(Br)ccc2C)c2cc(OCP(=O)(O)O)ccc12 [Compound T-130, (((3-acetyl-1-(2-((2S,4R)-2-((6-bromo-3-methylpyridin-2-yl)carbamoyl)-4-fluoropyrrolidin-1-yl)-2-oxoethyl)-1H-indazol-6-yl)oxy)methyl)phosphonic acid]
- IC50 (Table 7, read-out: IC5 (Stars)): < 1000 nM

- IC50 (Table 7, read-out: IC5 (Stars)): 1000 to 10000 nM
SMILES: Cc1ccc(Br)nc1NC(=O)[C@@H]1C[C@@]2(C)C[C@H]2N1C(=O)Cc1ccc2[nH]nc(Cl)c2c1 [Compound T-99, (1R,3S,5R)-N-(6-bromo-3-methylpyridin-2-yl)-2-(2-(3-chloro-1H-indazol-5-yl)acetyl)-5-methyl-2-azabicyclo[3.1.0]hexane-3-carboxamide]

SMILES: CC(=O)c1nn(CC(=O)N2C[C@H](F)C[C@H]2C(=O)Nc2nc(Br)ccc2C)c2ccc(O[C@@H]3CO[C@H]4[C@@H]3OC[C@H]4OC(=O)[C@@H](N)C(C)C)cc12 [Compound T-58, (3R,3aR,6R,6aR)-6-((3-acetyl-1-(2-((2S,4R)-2-((6-bromo-3-methylpyridin-2-yl)carbamoyl)-4-fluoropyrrolidin-1-yl)-2-oxoethyl)-lH-indazol-5-yl)oxy)hexahydrofuro[3,2-b]furan-3-yl L-valinate]
- IC50 [2]: < 1000 nM

SMILES: CC(=O)c1nn(CC(=O)N2[C@H](C(=O)Nc3nc(Br)ccc3C)C[C@@]3(CN4C[C@H]5CCC[C@H]5C4)C[C@@H]23)c2c(C)cccc12 [Compound T-39, (1R,3S,5R)-2-(2-(3-acetyl-7-methyl-1H-indazol-1-yl)acetyl)-N-(6-bromo-3-methylpyridin-2-yl)-5-(((3aR,6aS)-hexahydrocyclopenta[c]pyrrol-2(1H)-yl)methyl)-2-azabicyclo[3.1.0]hexane-3-carboxamide]
- IC50 [1]: < 1000 nM

SMILES: CC(=O)c1nn(CC(=O)N2C(C(=O)Nc3nc(Br)ccc3C)C[C@]3(C)C[C@H]23)c2ccc(OCCS(=O)(=O)CC3(C)COC3)cc12 (stereo partly drawn) [Compound T-56, (1S,5S)-2-(2-(3-acetyl-5-(2-(((3-methyloxetan-3-yl)methyl)sulfonyl)ethoxy)-1H-indazol-1-yl)acetyl)-N-(6-bromo-3-methylpyridin-2-yl)-5-methyl-2-azabicyclo[3.1.0]hexane-3-carboxamide]
- IC50 [2]: 1000 to 10000 nM

- IC50 (Table 7, read-out: IC5 (Stars)): < 1000 nM
SMILES: Cc1ncc(-c2cc(CC(=O)N3C[C@H](F)C[C@H]3C(=O)Nc3cccc(-c4ccccc4Cl)c3F)cc(C(N)=O)c2)cn1 [Compound T-112, (2S,4R)-1-(2-(3-carbamoyl-5-(2-methylpyrimidin-5-yl)phenyl)acetyl)-N-(2′-chloro-2-fluoro-[1,1′-biphenyl]-3-yl)-4-fluoropyrrolidine-2-carboxamide]

SMILES: CCOP(=O)(COc1ccc2c(C(C)=O)nn(CC(=O)N3C[C@H](F)C[C@H]3C(=O)Nc3nc(Br)ccc3C)c2c1)OCC [Compound T-78, diethyl (((3-acetyl-1-(2-((2S,4R)-2-((6-bromo-3-methylpyridin-2-yl)carbamoyl)-4-fluoropyrrolidin-1-yl)-2-oxoethyl)-1H-indazol-6-yl)oxy)methyl)phosphonate]
- IC50 (Table 7, read-out: IC5 (Stars)): < 1000 nM

- IC50 (Table 7, read-out: IC5 (Stars)): 1000 to 10000 nM
SMILES: Cc1ncc(-c2cc(C#N)cc(CC(=O)N3C[C@H](F)C[C@H]3C(=O)Nc3cccc(Br)n3)c2)cn1 [Compound T-114, (2S,4R)-N-(6-bromopyridin-2-yl)-1-(2-(3-cyano-5-(2-methylpyrimidin-5-yl)phenyl)acetyl)-4-fluoropyrrolidine-2-carboxamide]

SMILES: CC(=O)c1nn(CC(=O)N2[C@H](C(=O)Nc3nc(Br)ccc3C)C[C@@]3(C)C[C@@H]23)c2c(S(C)=N)cccc12 (stereo partly drawn) [Compound T-40, (1R,3S,5R)-2-(2-(3-acetyl-7-(S-methylsulfinimidoyl)-1H-indazol-1-yl)acetyl)-N-(6-bromo-3-methylpyridin-2-yl)-5-methyl-2-azabicyclo[3.1.0]hexane-3-carboxamide]
- IC50 [1]: < 1000 nM

- IC50 [1]: < 1000 nM
SMILES: CC(=O)c1nn(CC(=O)N2C[C@H]3C[C@H]3[C@H]2C(=O)Nc2nc(Br)ccc2C2CC2)c2cc(C)sc12 [Compound T-10, (1R,2S,5S)-3-(2-(3-acetyl-5-methyl-1H-thieno[3,2-c]pyrazol-1-yl)acetyl)-N-(6-bromo-3-cyclopropylpyridin-2-yl)-3-azabicyclo[3.1.0]hexane-2-carboxamide]

SMILES: CC(=O)c1nn(CC(=O)N2C[C@H](F)C[C@H]2C(=O)Nc2cccc(Br)n2)c2cc(/S(C)=N/C(=O)C(F)(F)F)ccc12 (stereo partly drawn) [Compound T-4, (2S,4R)-1-(2-(3-acetyl-6-((E)-S-methyl-N-(2,2,2-trifluoroacetyl)sulfinimidoyl)-1H-indazol-1-yl)acetyl)-N-(6-bromopyridin-2-yl)-4-fluoropyrrolidine-2-carboxamide]
- IC50 [1]: < 1000 nM

- IC50 (Table 7, read-out: IC5 (Stars)): 1000 to 10000 nM
SMILES: Cc1ncc(-c2cc(CC(=O)N3[C@H](C(=O)Nc4nc(Br)ccc4C)C[C@@]4(C)C[C@@H]34)cc(C(N)=O)c2)cn1 [Compound T-113, (1R,3S,5R)-N-(6-bromo-3-methylpyridin-2-yl)-2-(2-(3-carbamoyl-5-(2-methylpyrimidin-5-yl)phenyl)acetyl)-5-methyl-2-azabicyclo[3.1.0]hexane-3-carboxamide]

SMILES: CC(=O)c1nn(CC(=O)N2[C@H](C(=O)Nc3nc(Br)ccc3C)C[C@@]3(C)C[C@@H]23)c2ccc(O[C@@H]3CO[C@H]4[C@@H]3OC[C@H]4O)cc12 [Compound T-52, (1R,3S,5R)-2-(2-(3-acetyl-5-(((3R,3aR,6R,6aR)-6-hydroxy-hexahydrofuro[3,2-b]furan-3-yl)oxy)-1H-indazol-1-yl)acetyl)-N-(6-bromo-3-methylpyridin-2-yl)-5-methyl-2-azabicyclo[3.1.0]hexane-3-carboxamide]
- IC50 [2]: < 1000 nM

- IC50 (Table 7, read-out: IC5 (Stars)): > 10000 nM
SMILES: Cc1ccc(Br)nc1NC(=O)[C@@H]1C[C@@]2(C)C[C@H]2N1C(=O)Cc1ccc2[nH]nc(C(N)=O)c2c1 [Compound T-98, 5-(2-((1R,3S,5R)-3-((6-bromo-3-methylpyridin-2-yl)carbamoyl)-5-methyl-2-azabicyclo[3.1.0]hexan-2-yl)-2-oxoethyl)-1H-indazole-3-carboxamide]

SMILES: Cc1ccc(Br)nc1NC(=O)[C@@H]1C[C@@]2(CNC(=O)COCCOCCNC(=O)COCCOCCNC(=O)CC[C@H](NC(=O)CCCCCCCCCCCCCCCCC(=O)O)C(=O)O)C[C@H]2N1C(=O)Cn1nc(C(N)=O)c2ccc(C(=O)NS(=O)(=O)C3CC3)cc21 [Compound T-126, (S)-1-((1R,3S,5R)-3-((6-bromo-3-methylpyridin-2-yl)carbamoyl)-2-(2-(3-carbamoyl-6-((cyclopropylsulfonyl)carbamoyl)-1H-indazol-1-yl)acetyl)-2-azabicyclo[3.1.0]hexan-5-yl)-24-carboxy-3,12,21,26-tetraoxo-5,8,14,17-tetraoxa-2,11,20,25-tetraazatritetracontan-43-oic acid]
- IC50 (Table 7, read-out: IC5 (Stars)): < 1000 nM

SMILES: C#CCNC(=O)c1nn(CC(=O)N2[C@H](C(=O)Nc3nc(Br)ccc3C)C[C@@]3(C)C[C@@H]23)c2ccc(-c3cnc(C)nc3)cc12 [Compound T-121, 1-(2-((1R,3S,5R)-3-((6-bromo-3-methylpyridin-2-yl)carbamoyl)-5-methyl-2-azabicyclo[3.1.0]hexan-2-yl)-2-oxoethyl)-5-(2-methylpyrimidin-5-yl)-N-(prop-2-yn-1-yl)-1H-indazole-3-carboxamide]
- IC50 (Table 7, read-out: IC5 (Stars)): < 1000 nM

SMILES: CC(=O)c1nn(CC(=O)N2[C@H](C(=O)Nc3nc(Br)ccc3C)C[C@@]3(C)C[C@@H]23)c2ccc(OC(=O)NC3CC3)cc12 [Compound T-32, 3-acetyl-1-(2-((1R,3S,5R)-3-((6-bromo-3-methylpyridin-2-yl)carbamoyl)-5-methyl-2-azabicyclo[3.1.0]hexan-2-yl)-2-oxoethyl)-1H-indazol-5-yl cyclopropylcarbamate]
- IC50 [1]: < 1000 nM

SMILES: C/S(COc1ccc2c(C(N)=O)nn(CC(=O)N3C[C@H](F)C[C@H]3C(=O)Nc3cccc(-c4ccccc4Cl)c3F)c2c1)=N\C#N (some centres unmarked) [Compound T-61]
- IC50 [2]: < 1000 nM

Reference: US11447465B2, “Pharmaceutical compounds for treatment of medical disorders” (Achillion Pharmaceuticals, Inc., priority 2017, dated 2022)
